Results: patent US9725477B2, “Platinum compounds of malonic acid derivative having leaving group containing amino or alkylamino” (BEIJING FSWELCOME TECHNOLOGY DEVELOPMENT CO., LTD, priority 2012, dated 2017)
Where a name gives a salt, the structure may show the parent alone. Read-outs that look alike come from different tables or passages of the source.

Tests used:
normal mice = test: in vivo; details: Table 3; mice, single intravenous administration, 14 days observation
Experimental: (§1) Kunming mice with 4˜6 weeks old and 18 g˜22 g by weight were taken, 50% males and 50% females. […] The condition of mortality and toxicity were observed after administration. Totally observing for 14 days, LD50 value was calculated using Bliss method according to the mortality.

Lung cancer H292 = test: MTT cytotoxicity, lung cancer H292; type: cell-based
[1] = system: Alveolar epithelial cells BEAS-2B; test: MTT cytotoxicity, alveolar epithelial cells BEAS-2B; type: cell-based
Lung cancer Lewis = test: MTT cytotoxicity, lung cancer Lewis; type: cell-based
colon cancer SW480 = test: MTT cytotoxicity, colon cancer SW480; type: cell-based
Breast cancer MCF-7 = test: MTT cytotoxicity, breast cancer MCF-7; type: cell-based; details: Breast cancer MCF-7, MTT, n = 6
[2] = system: Breast cancer MCF-7 cisplatin resistance strain; test: MTT cytotoxicity, breast cancer MCF-7 cisplatin resistance strain; type: cell-based; details: n = 6
Lung cancer A549 = test: MTT cytotoxicity, lung cancer A549; details: read-out: cytotoxicity IC50; Lung cancer A549, MTT, n = 6, Table 4
Experimental: Cell morphologies were observed after being cultivated for 24 hours.

Testis cell ST = test: MTT cytotoxicity, testis cell ST; type: cell-based; details: n = 6
gastric cancer MGC803 = test: MTT cytotoxicity, gastric cancer MGC803; type: cell-based; details: n = 6
Esophagus cancer ECA109 = test: MTT cytotoxicity, esophagus cancer ECA109; type: cell-based; details: n = 6
[3] = existing platinum drugs, background section; cited from earlier work
in vivo = details: both, Kunming, mouse, in vivo, iv
Experimental: as §1

[4] = MTT cytotoxicity, alveolar epithelial cells BEAS-2B; type: cell-based; details: human, BEAS-2B alveolar epithelial cells; Alveolar epithelial cells BEAS-2B, MTT, n = 6
[5] = MTT cytotoxicity, testis cell ST; type: cell-based; details: pig, ST testis cells, n = 6
[6] = Lung cancer H292, MTT, n = 6, read-out: cytotoxicity IC50
[7] = Alveolar epithelial cells BEAS-2B, MTT, n = 6, read-out: cytotoxicity IC50
[8] = Lung cancer Lewis, MTT, n = 6, read-out: cytotoxicity IC50
[9] = colon cancer SW480, MTT, n = 6, read-out: cytotoxicity IC50
[10] = compound of the example (salt form) in water

For NCCCCC1C(=O)[O][Pt]2([NH]C3CCCCC3[NH]2)[O]C1=O.O=P(O)(O)O (racemic) [Compound 11, 2-(4-aminobutyl)-malonate•cis-(1,2-trans-cyclohexanediamine) platinum (II) phosphate], the “LD50 vALUE” (normal mice) was 0.803 mmol/kg, the IC50 (Lung cancer H292) was 5 µM and the IC50 [1] was 2 µM. The IC50 (Lung cancer Lewis) was 49 µM and the IC50 (colon cancer SW480) was 21 µM.

In the case of N.N.O=C([O-])C1(C(=O)[O-])CCC1.[Pt+2] [Carboplatin, cis-1,1-cyclobutanedicarboxylatodiamminoplatinum, reference compound], the “LD50 vALUE” (normal mice) is reported as 0.336 mmol/kg, the IC50 (Breast cancer MCF-7) is reported as 103 µM and the IC50 [2] is reported as 255 µM. For the same compound, the IC50 (Lung cancer A549) was 232 µM, the IC50 (Lung cancer H292; [6]) was 55 µM and the IC50 [1, 7] was 37 µM. It also gave an IC50 (Lung cancer Lewis; [8]) of 38 µM, an IC50 (colon cancer SW480; [9]) of 87 µM and an IC50 (Testis cell ST) of 195 µM. The IC50 (gastric cancer MGC803) was 625 µM, the IC50 (Esophagus cancer ECA109) was 52 µM and the solubility [3] was 17.8 mg/mL.

Work on [NH2][Pt]1([NH2])[O]C(=O)C(CCCCN2CCCCC2)C(=O)[O]1 [Compound 4, 2-(4-(1-piperidyl)-butyl)-malonate•cis-diamine platinum (II) phosphate] yielded an LD50 (in vivo) of 823 µmol/kg and a solubility (Solubility in water; water) greater than 300 mg/mL.

With Cc1ccc(S(=O)(=O)O)cc1.O=C1[O][Pt]2([NH]C3CCCCC3[NH]2)[O]C(=O)C1CCCCN1CCCCC1 (racemic) [Compound 9, 2-(4-(1-piperidyl)-butyl)-malonate•cis-(1,2-trans-cyclohexanediamine) platinum (II) tosilate] the “LD50 vALUE” (normal mice) was 0.725 mmol/kg, the IC50 (Lung cancer H292) was 8 µM and the IC50 [1] was 2 µM. It also gave an IC50 (Lung cancer Lewis) of 50 µM and an IC50 (colon cancer SW480) of 14 µM.

With “2-(4-ethyl aminobutyl)-malonate•cis-(1, 2-trans-cyclohexanediamine) platinum (II) phosphate [Compound 12]” the “LD50 vALUE” (normal mice) was 0.729 mmol/kg, the IC50 (Lung cancer H292) was 6 µM and the IC50 [1] was 8 µM. For the same compound, the IC50 (Lung cancer Lewis) was 18 µM and the IC50 (colon cancer SW480) was 18 µM.

In the case of CC1CCCN1CCCCC1C(=O)[O][Pt]([NH2])([NH2])[O]C1=O (stereo not drawn) [Compound 10, 2-(4-(2-methyl-1-tetrahydropyrrolidinyl)-butyl)-malonate•cis-diamine platinum (II) phosphate], the LD50 (in vivo) is reported as 791 µmol/kg, the IC50 [4] is reported as 3 µM and the solubility (Solubility in water; water) is reported as greater than 300 mg/mL.

CCN(CC)CCCCC1C(=O)[O][Pt]2([NH]CC3CCC3C[NH]2)[O]C1=O.O=P(O)(O)O (racemic) [Compound 22, 2-(4-diethylaminobutyl)-malonate•cis-1,4-(trans-2,3-cyclobutyl)-butanediamine platinum (II) phosphate] showed an IC50 (Lung cancer H292; [6]) of 5 µM, an IC50 (Testis cell ST) of 14 µM and an IC50 (gastric cancer MGC803) of 7 µM. For the same compound, the IC50 (Esophagus cancer ECA109) was 102 µM and the solubility (Solubility in water; [10]) was “more than 300 mg/ml”.

With [NH2][Pt]1([NH2])[O]C(=O)C(CCCCN2CCCC2)C(=O)[O]1 [Compound 5, 2-(4-(1-tetrahydropyrrolidinyl)-butyl)-malonate•cis-diamine platinum (II) phosphate] the LD50 (in vivo) was 845 µmol/kg, the IC50 [4] was 2 µM and the solubility (Solubility in water; water) was greater than 300 mg/mL.

For CCN(CC)CCCCC1C(=O)[O][Pt]2([NH]C3CCCC3[NH]2)[O]C1=O.O=P(O)(O)O (racemic) [Compound 14, 2-(4-diethylaminobutyl)-malonate•cis-(1,2-trans-cyclopentanediamine) platinum (II) phosphate], the “LD50 vALUE” (normal mice) was 0.866 mmol/kg, the IC50 (Lung cancer H292; [6]) was 12 µM and the IC50 [1, 7] was 5 µM. The IC50 (Lung cancer Lewis; [8]) was 36 µM, the IC50 (colon cancer SW480; [9]) was 17 µM and the solubility (Solubility in water; [10]) was “more than 300 mg/ml”.

For “2-(4-di-n-propylaminobutyl)-malonate•cis-diamine platinum (II) phosphate [Compound 7]”, the “LD50 vALUE” (normal mice) was 0.778 mmol/kg, the IC50 (Lung cancer H292) was 4 µM and the IC50 [1] was 4 µM. For the same compound, the IC50 (Lung cancer Lewis) was 21 µM and the IC50 (colon cancer SW480) was 10 µM.

For CN(C)C1CC(C2C(=O)[O][Pt]([NH2])([NH2])[O]C2=O)C1 (stereo not drawn) [Compound 6, 2-(3-dimethylaminocyclobutyl)-malonate•cis-diamine platinum (II) mesylate], the LD50 (in vivo) was 756 µmol/kg, the IC50 [4] was 3 µM and the solubility (Solubility in water; water) was greater than 300 mg/mL.

With CCN(CC)CC(C)CCC1C(=O)[O][Pt]([NH2])([NH2])[O]C1=O (stereo not drawn) [Compound 8, 2-(3-methyl-4-diethylaminobutyl)-malonate•cis-diamine platinum (II) acetate] the LD50 (in vivo) was 801 µmol/kg, the IC50 [4] was 5 µM and the solubility (Solubility in water; water) was greater than 300 mg/mL.

CCN(CC)CCCCC1C(=O)[O][Pt]([NH2])([N]2CCCCC2)[O]C1=O (stereo not drawn) [Compound 28, 2-(4-diethylaminobutyl)-malonate•cis-ammonia•piperidine platinum (II) acetate] gave an LD50 at 14 days (in vivo) of 725 µmol/kg, an IC50 [5] of 61 µM and a solubility (Solubility in water; water) greater than 300 mg/mL.

In the case of CCN(CC)CCCCC1C(=O)[O][Pt]2([NH]C3CCCCC3[NH]2)[O]C1=O.Cc1ccc(S(=O)(=O)O)cc1 (racemic) [Compound 3, 2-(4-diethylaminobutyl)-malonate•cis-(1,2-trans-cyclohexanediamine) platinum (II) tosilate], the “LD50 vALUE” (normal mice) is reported as 0.815 mmol/kg, the IC50 (Breast cancer MCF-7) is reported as 7 µM and the IC50 [2] is reported as 21 µM. It also gave an IC50 (Lung cancer A549) of 8 µM and an IC50 (Lung cancer H292; [6]) of 6 µM.

With CCN(CC)CCCCC1C(=O)[O][Pt]([NH2])([NH2])[O]C1=O [Compound 1, 2-(4-diethylaminobutyl)-malonate•cis-diamine platinum (II) acetate] the LD50 (in vivo) was 746 µmol/kg and the solubility (Solubility in water; water) was greater than 300 mg/mL.
